# In PMC10350924, “Design, Synthesis, and Pharmacological Characterization of a Potent Soluble Epoxide Hydrolase Inhibitor for the Treatment of Acute Pancreatitis” (Journal of Medicinal Chemistry, 2023):
# Key:
# [1] = tested on: EETs, DHETs and HETEs in pancreas homogenates; test: Targeted metabololipidomics of pancreas homogenates (cerulein AP mice); assay type: in vivo; conditions: not statistically significant
# Experimental: The extraction of targeted lipid mediators from pancreas was performed as follows: tissues were lyophilized and weighted, 10 mg was homogenized and deproteinized with 500 μL of ice-cold 10% v/v MeOH spiked with labeled standards, and subsequently diluted with 500 μL of phosphate-buffered saline (PBS). Samples were then loaded on solid-phase extraction cartridges, Strata-X reversed-phase SPE columns (100 mg/3 mL) (Phenomenex, Bologna, Italy). Cartridges were conditioned with 3 mL of MeOH and equilibrated with 3 mL of ddH2O. Following loading, washed with 1 mL of 10% MeOH v/v, and finally eluted with 1.5 mL of MeOH. Eluted samples were dried with a SpeedVac (Savant, Thermo Scientific, Milan, Italy) and dissolved prior to UHPLC-MS/MS analyses in 50 μL of UHPLC solvent A.
# The analyses were acquired using a Shimadzu Nexera UHPLC (Kyoto, Japan) coupled online to a triple quadrupole LCMS-8050 (Shimadzu) equipped with an electrospray ionization (ESI) source operating in ESI negative mode. The separation was performed on a Kinetex EVO C18 150 mm × 2.1 mm, 2.6 μm (100 Å) (Phenomenex, Bologna, Italy). The flow rate was set to 0.4 mL/min, and the column oven was set at 40 °C. The mobile phases were, respectively: (A) ACN/H2O 45:55 acidified with 0.02% CH3COOH v/v and (B) ACN/IPA 50:50. The following gradient was used: 0 min, 0%B, 0–12 min 60%B, 12.10 min, 60–99%B, 12.10–13.05 isocratic to 99% B; returning to 0% B in 0.1. MS source parameters: desolvation Line (DL) 250 °C, interface: 300 °C, block heater 350 °C, nebulizing (N2), drying (N2), and heating (Air) gas pressures: 3, 10, 10 L/min. Each analyte was optimized by infusing standard solution at 0.2 mg/mL, multiple reaction monitoring (MRM) mode was used. Detailed MRM parameters are available in Table S3. […]
# [2] = tested on: PGE2 production in LPS-stimulated J774 murine macrophages; test: PGE2 production in LPS-stimulated J774 macrophages; assay type: cell-based; conditions: Mus musculus; J774, 2 h pre-treatment 0.1–10 μM, LPS 10 μg/mL 24 h; read-out: IC50 for reduction of PGE2 levels
# Experimental: Murine monocyte/macrophage J774 cell line was obtained from the American Type Culture Collection (ATTC TIB 67). The cell line was grown in adhesion in Dulbecco’s modified Eagle’s medium (DMEM) supplemented with glutamine (2 mM, Aurogene Rome, Italy), Hepes (25 mM, Aurogene Rome, Italy), penicillin (100 U/mL, Aurogene Rome, Italy), streptomycin (100 μg/mL, Aurogene Rome, Italy), fetal bovine serum (FBS, 10%, Aurogene Rome, Italy), and sodium pyruvate (1.2%, Aurogene Rome, Italy) (DMEM completed). The cells were plated at a density of 1 × 10^6 cells in 75 cm^2 culture flasks and maintained at 37 °C under 5% CO2 in a humidified incubator until 90% confluence. The culture medium was changed every 2 days. Before a confluent monolayer appeared, subculturing cell process was carried out. Cells (0.5 × 10^6 cells/mL) were pretreated for 2 h in the absence or presence of 28 (0.1–10 μM) and then stimulated, for 24 h, with lipopolysaccharide (LPS) from E. coli, Serotype 0111:B4, (10 μg/mL; 100 μL in DMEM completed with FBS, Sigma-Aldrich, Milan, Italy).[42] The supernatants were collected for the measurement of PGE2 levels by ELISA assay (Cayman Chemical, Vinci-Biochem, Vinci, Italy).
smiles,measurement,setting,value
"CC(C)c1ccc(Cn2ccc3cc(NC(=O)NCC45C[C@H]6C[C@@H](C4)C[C@@H](C5)C6)ccc32)cc1 [Compound 28, 1-(((3R,5R,7R)-Adamantan-1-yl)methyl)-3-(1-(4-isopropylbenzyl)-1H-indol-5-yl)urea]",change of DHET levels with respect to vehicle,[1],−31.5%
same,change of EETs levels with respect to vehicle,[1],+21.9%
same,"change of HETEs levels (15-HETE, 12-HETE, 5-HETE) with respect to vehicle",[1],−13.4%
same,IC50,[2],> 10 µM
